# In ChEMBL document CHEMBL1142226, “Impact of physicochemical and structural properties on the pharmacokinetics of a series of alpha1L-adrenoceptor antagonists” (Drug Metab Dispos, 2007):
# Key:
# [1] = Tmax in Sprague-Dawley rat at 1 mg/kg, po; assay type: ADME, organism-based; design: dose 1 mg/kg, route oral; details: in vivo
# [2] = Lipophilicity, log D in 0.1M potassium phosphate buffer at pH 7.4; assay type: physicochemical
# [3] = Protein binding in Beagle dog plasma at 1 ug/ml; assay type: ADME, cell-free, Canis lupus familiaris; details: read-out: PPB (converted)
# [4] = Volume of distribution in Beagle dog at 0.3 mg/kg, iv; assay type: ADME, organism-based, Canis lupus familiaris; design: dose 0.3 mg/kg, route intravenous; details: in vivo
# [5] = Oral bioavailability in human at 0.25 to 1.5 mg/kg; assay type: ADME, organism-based; details: in vivo
# [6] = tested on: Liver microsomes; test: Unbound intrinsic clearance in human liver microsomes at 1 uM; assay type: ADME, Microsome
# [7] = Oral absorption in Beagle dog at 0.6 mg/kg, po; assay type: ADME, organism-based, Canis lupus familiaris; design: dose 0.6 mg/kg, route oral; details: in vivo, read-out: Fabs
# [8] = Tmax in human at 0.02 mg/kg, po; assay type: ADME, organism-based; design: dose 0.02 mg/kg, route oral; details: in vivo
# [9] = Cmax in human at 0.02 mg/kg, po; assay type: ADME, organism-based; design: dose 0.02 mg/kg, route oral; details: in vivo
# [10] = Fraction unbound in Beagle dog liver microsomes at 1 uM; assay type: ADME, Canis lupus familiaris, Microsome
# [11] = tested on: Rattus norvegicus; test: Unbound volume of distribution in Sprague-Dawley rat at 0.5 mg/kg, iv; assay type: ADME, organism-based; design: dose 0.5 mg/kg, route intravenous; details: in vivo
# [12] = Oral bioavailability in Sprague-Dawley rat at 1 mg/kg; assay type: ADME, organism-based; details: in vivo
# [13] = Elimination half life in human at 0.02 mg/kg, po; assay type: ADME, organism-based; design: dose 0.02 mg/kg, route oral; details: in vivo
# [14] = Elimination half life in Sprague-Dawley rat at 1 mg/kg, po; assay type: ADME, organism-based; design: dose 1 mg/kg, route oral; details: in vivo
# [15] = Elimination half life in Sprague-Dawley rat at 0.5 mg/kg, iv; assay type: ADME, organism-based; design: dose 0.5 mg/kg, route intravenous; details: in vivo
# [16] = organism: Homo sapiens; test: Protein binding in human plasma at 1 ug/ml; details: read-out: PPB (converted)
# [17] = Elimination half life in Beagle dog at 0.3 mg/kg, iv; assay type: ADME, organism-based, Canis lupus familiaris; design: dose 0.3 mg/kg, route intravenous; details: in vivo
# [18] = Volume of distribution in Sprague-Dawley rat at 0.5 mg/kg, iv; assay type: ADME, organism-based; design: dose 0.5 mg/kg, route intravenous; details: in vivo
# [19] = Metabolic stability in human liver microsomes assessed as half life at 1 uM; assay type: ADME, Microsome
# [20] = Oral bioavailability in Beagle dog at 0.6 mg/kg; assay type: ADME, organism-based, Canis lupus familiaris; details: in vivo
# [21] = Plasma clearance in Sprague-Dawley rat at 0.5 mg/kg, iv; assay type: ADME, organism-based; design: dose 0.5 mg/kg, route intravenous
# [22] = tested on: Canis familiaris; test: Unbound volume of distribution in Beagle dog at 0.3 mg/kg, iv; assay type: ADME, organism-based, Canis lupus familiaris; design: dose 0.3 mg/kg, route intravenous; details: in vivo
# [23] = Metabolic stability in Beagle dog liver microsomes assessed as half life at 1 uM; assay type: ADME, Canis lupus familiaris, Microsome
# [24] = Protein binding in Sprague-Dawley rat plasma at 1 ug/ml; assay type: ADME, cell-free; details: read-out: PPB (converted)
# [25] = Dissociation constant, pKa of the compound; assay type: physicochemical
# [26] = tested on: Liver; test: Unbound intrinsic clearance in Beagle dog liver microsomes at 1 uM; assay type: ADME, Canis lupus familiaris, Microsome
# [27] = Cmax in Sprague-Dawley rat at 1 mg/kg, po; assay type: ADME, organism-based; design: dose 1 mg/kg, route oral; details: in vivo
# [28] = Fraction unbound in human liver microsomes at 1 uM; assay type: ADME, Microsome
# [29] = Plasma clearance in Beagle dog at 0.3 mg/kg, iv; assay type: ADME, organism-based, Canis lupus familiaris; design: dose 0.3 mg/kg, route intravenous
smiles,measurement,setting,value
COc1cc2nc(N3CCc4c(cccc4NS(C)(=O)=O)C3)nc(N)c2c(-c2ccccn2)c1OC [TAPRIZOSIN],Tmax,[1],0.5 h
same,logD,[2],3
same,fraction unbound at 1 ug/ml,[3],0.21
same,Vd,[4],4.4 L/kg
same,bioavailability,[5],73%
same,CL,[6],13 mL/min/kg
same,Fa,[7],89%
same,Tmax,[8],1.3 h
same,Cmax,[9],7.5 ng/mL
same,fraction unbound at 1 µM,[10],0.602
same,Vd,[11],24 L/kg
same,bioavailability,[12],42%
same,half-life,[13],11.4 h
same,half-life,[14],2.9 h
same,half-life,[15],1 h
same,fraction unbound at 1 ug/ml,[16],0.07
same,half-life,[17],9.2 h
same,Vd,[18],1.7 L/kg
same,half-life at 1 µM,[19],0.683 h
same,bioavailability,[20],79%
same,clearance,[21],22 mL/min/kg
same,Vd,[22],21 L/kg
same,half-life at 1 µM,[23],0.5 h
same,fraction unbound at 1 ug/ml,[24],0.07
same,pKa,[25],6.7
same,CL,[26],83 mL/min/kg
same,Cmax,[27],105 ng/mL
same,fraction unbound at 1 µM,[28],0.564
same,clearance,[29],5.6 mL/min/kg
